In the test the test system is proMMP13 production by SW1353 cells. Kind of test: Production of MMP13 (proMMP13 ELISA) by SW1353 cells upon stimulation with collagen type II. To be noted: Homo sapiens, read-out: IC50 [pro-MMP13]. In kind it is cell-based. On the procedure: The binding of Collagen type II to the DDR2 receptor of the SW1353 cells initiate a signalling cascade resulting in the increase of MMP13 expression. MMP13 is released in the culture medium in its pro-form, the proMMP13 which can be measured with an ELISA.
DDR2 inhibitors are evaluated for their ability to block this signalling cascade and therefore proMMP13 production upon collagen stimulation.
SW1353 cells (ATCC, HTB-94), conserved in liquid nitrogen, are thawed and cultivated at 1.6.10^6 cells in a T75 in RPMI1640 supplemented with 2 mM Glutamin, 1 mM Na-Pyruvate, 10% FCS, at 37° C., 5% CO2 for three days. SW1353 cells are then harvested with trypsin/EDTA and resuspended in RPMI1640 supplemented with 2 mM Glutamin, 1 mM Na-Pyruvate, 25 mM HEPES and 0.5% FCS (assay medium) and inoculated in a 96 well plate at 30 000 cells/well in 100 μL of the assay medium and further incubated 24 hours at 37°, 5% CO2 to enable cell adhesion. For stimulation of the DDR2 receptor, 50 μL of a collagen type II solution 160 μg/mL (final concentration in the well is 40 μg/mL) will be added in each well as well as 50 μL of the different dilutions of the inhibitors (MSCs) from 0.003 μM to 10 μM (final concentration in the plate). Each condition is performed in four-plicates. After three additional days of culture, the supernatant will be harvested for proMMP13 measurement.
The Different Controls Present on Each Plate are Composed of Assay Medium with: Positive control (with the reference compound): 40 μg/mL Collagen type II, 0.03 μM Dasatinib (reference compound) in 0.1% DMSO Negative control (no inhibition): 40 μg/mL Collagen type II and 0.1% DMSO Medium control (no stimulation): 0.005% Acetic acid and 0.1% DMSO All wells contains 0.1% DMSO and 0.005% acetic acid.
The solutions needed are: • Collagen type II is diluted at 2 mg/mL in 0.25% acetic acid. This stock solution can be stored at 4° C. for a week and is diluted 1/12.5 in the assay medium (to obtain 160 μg/mL in 0.02% acetic acid) before being used in the assay. • MSCs from 0.012 to 40 μM in assay medium with 0.4% DMSO (they are then further diluted ¼ in the assay plate) • Dasatinib 0.12 μM in assay medium with 0.4% DMSO (it is then further diluted ¼ in the assay plate) • Acetic acid 0.02% in assay medium (control).
The harvested supernatants are either directly used or stored at −20° C. until use. ProMMP13 is measured with a commercial ELISA kit, according the recommendation of the manufacturer (see Annex). Briefly, 50 μL of each samples are used undiluted and the standard curve is realised in the assay medium. At the end of the assay the ELISA plate is read on a Paradigm MTP-Reader (Beckman Coulter) at 540 (reference wavelength) and 450 nm. All the absorbance values obtained at 450 nm are corrected with the absorbance at 540 nm and a ‘Four Parameter Fit’ is used to establish the standard curve. From the standard curve the concentrations of proMMP13 in all the samples are calculated. All the calculations are realised by the Paradigm software.
The data reported in the database are the % effect of the compounds at the two highest concentrations (10 and 3 μM) as well as the IC50.
% effect at the two highest concentrations is calculated according to the formula: […]
The IC50s are calculated with the software Graph Pad Prism (see tables in Example 1).

Where [1] appears, read: 72 h, SW1353 cells, 40 μg/mL collagen type II, three days.

Consider ten compounds from patent US20150225369A1, “DDR2 INHIBITORS FOR THE TREATMENT OF OSTEOARTHRITIS” (Merck Patent GmbH, priority 2012, published 2015).

The structures appear in SMILES notation. Read-outs that look alike come from different tables or passages of the source.

On to `Cc1cc(Oc2ccc(CNC(=O)Nc3cc(C(F)(F)F)cn(C)c3=O)cc2C)ccn1` [compound 6], for which the IC50 under setting [1] is 258 nM.
Same read-out and setting: to `CNC(=O)c1cc(Oc2ccc(CNC(=O)Nc3cc(C(F)(F)F)cn(C)c3=O)cc2C)ccn1` [compound 7] belongs 32.9 nM.
For the compound `CNC(=O)c1cc(Oc2ccc(CNC(=O)Nc3cc(C(F)(F)F)cn(C)c3=O)cc2)ccn1` [compound 8], the IC50 (SW1353, 72 h) was 14.8 nM.
With `COc1ncc(C)cc1NC(=O)NCc1ccc(Oc2ccncc2)cc1` [compound 18], the IC50 under setting [1] turned out to be 733 nM.
With `CNC(=O)c1cc(Oc2ccc(CNC(=O)Nc3cc(C)cnc3OC)cc2)ccn1` [compound 19], under setting [1], the IC50 came out at 155 nM.
Take `CNC(=O)c1cc(Oc2ccc(CNC(=O)Nc3cc(Cl)cnc3OC)cc2)ccn1` [compound 21]: under setting [1], the IC50 was 69 nM.
Take `CNC(=O)c1cc(Oc2ccc(CNC(=O)Nc3cc(Cl)cnc3OC)cc2C)ccn1` [compound 23]: the IC50 under setting [1] turned out to be 45.4 nM.
As to `CNC(=O)c1cc(Oc2ccc(CNC(=O)Nc3cc(C(F)(F)F)cnc3Cl)cc2C)ccn1` [compound 26], the IC50 under setting [1] stood at 42.4 nM.
For the compound `COc1ncc(Cl)cc1NC(=O)NCc1ccc(Oc2ccnc(C)c2)c(C)c1` [compound 28], the IC50 under setting [1] turned out to be 348 nM.
With `Cc1cc(Oc2ccc(CNC(=O)Nc3cc(C(F)(F)F)cnc3Cl)cc2C)ccn1` [compound 30], the IC50 under setting [1] was determined as 960 nM.
